Experimental data: ChEMBL document CHEMBL4627246, “Pyroglutamide-Based P2X7 Receptor Antagonists Targeting Inflammatory Bowel Disease” (J Med Chem, 2020)

The molecules below were run on TK-10 (assay: Cytotoxicity against human TK10 cells assessed as effect on cell growth at 10 uM incubated for 48 hrs by sulforhodamine B assay). Settings: tk-10, 48 h.
Type: cell-based

Row | Structure (SMILES) | Activity
1 | COc1ccc(N2C(=O)[C@@H]3C/C(=C\N(C)C)C(=O)N3C2N(C)C)cc1 (stereo not given in full) | Non-Toxic
2 | COc1cc(CN/C=C2\C[C@@H](C(=O)NCc3ccc(Cl)cc3Cl)NC2=O)cc(OC)c1OC | Non-Toxic
3 | COc1ccc(CNC(=O)[C@@H]2CCC(=O)N2Cc2ccc(Cl)cc2Cl)c(OC)c1 | Non-Toxic

The molecules below were run on MDA-MB-468 (assay: Cytotoxicity against human MDA-MB-468 cells assessed as effect on cell growth at 10 uM incubated for 48 hrs by sulforhodamine B assay). Settings: mda-mb-468, 48 h.
Type: cell-based

Row | Structure (SMILES) | Activity
4 | COc1ccc(N2C(=O)[C@@H]3C/C(=C\N(C)C)C(=O)N3C2N(C)C)cc1 (stereo not given in full) | Non-Toxic
5 | COc1cc(CN/C=C2\C[C@@H](C(=O)NCc3ccc(Cl)cc3Cl)NC2=O)cc(OC)c1OC | Non-Toxic
6 | COc1ccc(CNC(=O)[C@@H]2CCC(=O)N2Cc2ccc(Cl)cc2Cl)c(OC)c1 | Non-Toxic

What follows are molecules tested on HCC 2998 (assay: Cytotoxicity against human HCC2998 cells assessed as effect on cell growth at 10 uM incubated for 48 hrs by sulforhodamine B assay). Settings: hcc 2998, 48 h.
Type: cell-based

Row | Structure (SMILES) | Activity
7 | COc1ccc(N2C(=O)[C@@H]3C/C(=C\N(C)C)C(=O)N3C2N(C)C)cc1 (stereo not given in full) | Non-Toxic
8 | COc1cc(CN/C=C2\C[C@@H](C(=O)NCc3ccc(Cl)cc3Cl)NC2=O)cc(OC)c1OC | Non-Toxic
9 | COc1ccc(CNC(=O)[C@@H]2CCC(=O)N2Cc2ccc(Cl)cc2Cl)c(OC)c1 | Non-Toxic

Each molecule was assayed on PC-3 (assay: Cytotoxicity against human PC3 cells assessed as effect on cell growth at 10 uM incubated for 48 hrs by sulforhodamine B assay). Settings: pc-3, 48 h.
Type: cell-based

Row | Structure (SMILES) | Activity
10 | COc1ccc(N2C(=O)[C@@H]3C/C(=C\N(C)C)C(=O)N3C2N(C)C)cc1 (stereo not given in full) | Non-Toxic
11 | COc1cc(CN/C=C2\C[C@@H](C(=O)NCc3ccc(Cl)cc3Cl)NC2=O)cc(OC)c1OC | Non-Toxic
12 | COc1ccc(CNC(=O)[C@@H]2CCC(=O)N2Cc2ccc(Cl)cc2Cl)c(OC)c1 | Non-Toxic

What follows are molecules tested on HCT-116 (assay: Cytotoxicity against human HCT116 cells assessed as effect on cell growth at 10 uM incubated for 48 hrs by sulforhodamine B assay). Settings: hct-116, 48 h.
Type: cell-based

Row | Structure (SMILES) | Activity
13 | COc1ccc(N2C(=O)[C@@H]3C/C(=C\N(C)C)C(=O)N3C2N(C)C)cc1 (stereo not given in full) | Non-Toxic
14 | COc1cc(CN/C=C2\C[C@@H](C(=O)NCc3ccc(Cl)cc3Cl)NC2=O)cc(OC)c1OC | Non-Toxic
15 | COc1ccc(CNC(=O)[C@@H]2CCC(=O)N2Cc2ccc(Cl)cc2Cl)c(OC)c1 | Non-Toxic

Each molecule was assayed on NCI-H322M (assay: Cytotoxicity against human NCI-H322M cells assessed as effect on cell growth at 10 uM incubated for 48 hrs by sulforhodamine B assay). Settings: not given.
Type: cell-based

Row | Structure (SMILES) | Activity
16 | COc1ccc(N2C(=O)[C@@H]3C/C(=C\N(C)C)C(=O)N3C2N(C)C)cc1 (stereo not given in full) | Non-Toxic
17 | COc1cc(CN/C=C2\C[C@@H](C(=O)NCc3ccc(Cl)cc3Cl)NC2=O)cc(OC)c1OC | Non-Toxic
18 | COc1ccc(CNC(=O)[C@@H]2CCC(=O)N2Cc2ccc(Cl)cc2Cl)c(OC)c1 | Non-Toxic

These molecules were tested on U-251 (assay: Cytotoxicity against human U251 cells assessed as effect on cell growth at 10 uM incubated for 48 hrs by sulforhodamine B assay). Settings: u-251, 48 h.
Type: cell-based

Row | Structure (SMILES) | Activity
19 | COc1ccc(N2C(=O)[C@@H]3C/C(=C\N(C)C)C(=O)N3C2N(C)C)cc1 (stereo not given in full) | Non-Toxic
20 | COc1cc(CN/C=C2\C[C@@H](C(=O)NCc3ccc(Cl)cc3Cl)NC2=O)cc(OC)c1OC | Non-Toxic
21 | COc1ccc(CNC(=O)[C@@H]2CCC(=O)N2Cc2ccc(Cl)cc2Cl)c(OC)c1 | Non-Toxic

What follows are molecules tested on HT-29 (assay: Cytotoxicity against human HT-29 cells assessed as effect on cell growth at 10 uM incubated for 48 hrs by sulforhodamine B assay). Settings: ht-29, 48 h.
Type: cell-based

Row | Structure (SMILES) | Activity
22 | COc1ccc(N2C(=O)[C@@H]3C/C(=C\N(C)C)C(=O)N3C2N(C)C)cc1 (stereo not given in full) | Non-Toxic
23 | COc1cc(CN/C=C2\C[C@@H](C(=O)NCc3ccc(Cl)cc3Cl)NC2=O)cc(OC)c1OC | Non-Toxic
24 | COc1ccc(CNC(=O)[C@@H]2CCC(=O)N2Cc2ccc(Cl)cc2Cl)c(OC)c1 | Non-Toxic

The molecules below were run on COLO 205 (assay: Cytotoxicity against human COLO205 cells assessed as effect on cell growth at 10 uM incubated for 48 hrs by sulforhodamine B assay). Settings: colo 205, 48 h.
Type: cell-based

Row | Structure (SMILES) | Activity
25 | COc1ccc(N2C(=O)[C@@H]3C/C(=C\N(C)C)C(=O)N3C2N(C)C)cc1 (stereo not given in full) | Non-Toxic
26 | COc1cc(CN/C=C2\C[C@@H](C(=O)NCc3ccc(Cl)cc3Cl)NC2=O)cc(OC)c1OC | Non-Toxic
27 | COc1ccc(CNC(=O)[C@@H]2CCC(=O)N2Cc2ccc(Cl)cc2Cl)c(OC)c1 | Non-Toxic

These molecules were tested on NCI/ADR-RES (assay: Cytotoxicity against human NCI/ADR-RES cells assessed as effect on cell growth at 10 uM incubated for 48 hrs by sulforhodamine B assay). Settings: not given.
Type: cell-based

Row | Structure (SMILES) | Activity
28 | COc1ccc(N2C(=O)[C@@H]3C/C(=C\N(C)C)C(=O)N3C2N(C)C)cc1 (stereo not given in full) | Non-Toxic
29 | COc1cc(CN/C=C2\C[C@@H](C(=O)NCc3ccc(Cl)cc3Cl)NC2=O)cc(OC)c1OC | Non-Toxic
30 | COc1ccc(CNC(=O)[C@@H]2CCC(=O)N2Cc2ccc(Cl)cc2Cl)c(OC)c1 | Non-Toxic

Each molecule was assayed on NCI-H23 (assay: Cytotoxicity against human NCI-H23 cells assessed as effect on cell growth at 10 uM incubated for 48 hrs by sulforhodamine B assay). Settings: nci-h23, 48 h.
Type: cell-based

Row | Structure (SMILES) | Activity
31 | COc1ccc(N2C(=O)[C@@H]3C/C(=C\N(C)C)C(=O)N3C2N(C)C)cc1 (stereo not given in full) | Non-Toxic
32 | COc1cc(CN/C=C2\C[C@@H](C(=O)NCc3ccc(Cl)cc3Cl)NC2=O)cc(OC)c1OC | Non-Toxic
33 | COc1ccc(CNC(=O)[C@@H]2CCC(=O)N2Cc2ccc(Cl)cc2Cl)c(OC)c1 | Non-Toxic

The molecules below were run on HOP-92 (assay: Cytotoxicity against human HOP92 cells assessed as effect on cell growth at 10 uM incubated for 48 hrs by sulforhodamine B assay). Settings: hop-92, 48 h.
Type: cell-based

Row | Structure (SMILES) | Activity
34 | COc1ccc(N2C(=O)[C@@H]3C/C(=C\N(C)C)C(=O)N3C2N(C)C)cc1 (stereo not given in full) | Non-Toxic
35 | COc1cc(CN/C=C2\C[C@@H](C(=O)NCc3ccc(Cl)cc3Cl)NC2=O)cc(OC)c1OC | Non-Toxic
36 | COc1ccc(CNC(=O)[C@@H]2CCC(=O)N2Cc2ccc(Cl)cc2Cl)c(OC)c1 | Non-Toxic

These molecules were tested on NCI-H522 (assay: Cytotoxicity against human NCI-H522 cells assessed as effect on cell growth at 10 uM incubated for 48 hrs by sulforhodamine B assay). Settings: nci-h522, 48 h.
Type: cell-based

Row | Structure (SMILES) | Activity
37 | COc1ccc(N2C(=O)[C@@H]3C/C(=C\N(C)C)C(=O)N3C2N(C)C)cc1 (stereo not given in full) | Non-Toxic
38 | COc1cc(CN/C=C2\C[C@@H](C(=O)NCc3ccc(Cl)cc3Cl)NC2=O)cc(OC)c1OC | Non-Toxic
39 | COc1ccc(CNC(=O)[C@@H]2CCC(=O)N2Cc2ccc(Cl)cc2Cl)c(OC)c1 | Non-Toxic

What follows are molecules tested on OVCAR-8 (assay: Cytotoxicity against human OVCAR8 cells assessed as effect on cell growth at 10 uM incubated for 48 hrs by sulforhodamine B assay). Settings: ovcar-8, 48 h.
Type: cell-based

Row | Structure (SMILES) | Activity
40 | COc1ccc(N2C(=O)[C@@H]3C/C(=C\N(C)C)C(=O)N3C2N(C)C)cc1 (stereo not given in full) | Non-Toxic
41 | COc1cc(CN/C=C2\C[C@@H](C(=O)NCc3ccc(Cl)cc3Cl)NC2=O)cc(OC)c1OC | Non-Toxic
42 | COc1ccc(CNC(=O)[C@@H]2CCC(=O)N2Cc2ccc(Cl)cc2Cl)c(OC)c1 | Non-Toxic

What follows are molecules tested on SNB-19 (assay: Cytotoxicity against human SNB19 cells assessed as effect on cell growth at 10 uM incubated for 48 hrs by sulforhodamine B assay). Settings: snb-19, 48 h.
Type: cell-based

Row | Structure (SMILES) | Activity
43 | COc1ccc(N2C(=O)[C@@H]3C/C(=C\N(C)C)C(=O)N3C2N(C)C)cc1 (stereo not given in full) | Non-Toxic
44 | COc1cc(CN/C=C2\C[C@@H](C(=O)NCc3ccc(Cl)cc3Cl)NC2=O)cc(OC)c1OC | Non-Toxic
45 | COc1ccc(CNC(=O)[C@@H]2CCC(=O)N2Cc2ccc(Cl)cc2Cl)c(OC)c1 | Non-Toxic

These molecules were tested on UACC-62 (assay: Cytotoxicity against human UACC62 cells assessed as effect on cell growth at 10 uM incubated for 48 hrs by sulforhodamine B assay). Settings: uacc-62, 48 h.
Type: cell-based

Row | Structure (SMILES) | Activity
46 | COc1ccc(N2C(=O)[C@@H]3C/C(=C\N(C)C)C(=O)N3C2N(C)C)cc1 (stereo not given in full) | Non-Toxic
47 | COc1cc(CN/C=C2\C[C@@H](C(=O)NCc3ccc(Cl)cc3Cl)NC2=O)cc(OC)c1OC | Non-Toxic
48 | COc1ccc(CNC(=O)[C@@H]2CCC(=O)N2Cc2ccc(Cl)cc2Cl)c(OC)c1 | Non-Toxic

What follows are molecules tested on IGROV-1 (assay: Cytotoxicity against human IGROV1 cells assessed as effect on cell growth at 10 uM incubated for 48 hrs by sulforhodamine B assay). Settings: igrov-1, 48 h.
Type: cell-based

Row | Structure (SMILES) | Activity
49 | COc1ccc(N2C(=O)[C@@H]3C/C(=C\N(C)C)C(=O)N3C2N(C)C)cc1 (stereo not given in full) | Non-Toxic
50 | COc1cc(CN/C=C2\C[C@@H](C(=O)NCc3ccc(Cl)cc3Cl)NC2=O)cc(OC)c1OC | Non-Toxic
51 | COc1ccc(CNC(=O)[C@@H]2CCC(=O)N2Cc2ccc(Cl)cc2Cl)c(OC)c1 | Non-Toxic

Each molecule was assayed on T47D (assay: Cytotoxicity against human T47D cells assessed as effect on cell growth at 10 uM incubated for 48 hrs by sulforhodamine B assay). Settings: not given.
Type: cell-based

Row | Structure (SMILES) | Activity
52 | COc1ccc(N2C(=O)[C@@H]3C/C(=C\N(C)C)C(=O)N3C2N(C)C)cc1 (stereo not given in full) | Non-Toxic
53 | COc1cc(CN/C=C2\C[C@@H](C(=O)NCc3ccc(Cl)cc3Cl)NC2=O)cc(OC)c1OC | Non-Toxic
54 | COc1ccc(CNC(=O)[C@@H]2CCC(=O)N2Cc2ccc(Cl)cc2Cl)c(OC)c1 | Non-Toxic

These molecules were tested on SNB-75 (assay: Cytotoxicity against human SNB75 cells assessed as effect on cell growth at 10 uM incubated for 48 hrs by sulforhodamine B assay). Settings: snb-75, 48 h.
Type: cell-based

Row | Structure (SMILES) | Activity
55 | COc1ccc(N2C(=O)[C@@H]3C/C(=C\N(C)C)C(=O)N3C2N(C)C)cc1 (stereo not given in full) | Non-Toxic
56 | COc1cc(CN/C=C2\C[C@@H](C(=O)NCc3ccc(Cl)cc3Cl)NC2=O)cc(OC)c1OC | Non-Toxic
57 | COc1ccc(CNC(=O)[C@@H]2CCC(=O)N2Cc2ccc(Cl)cc2Cl)c(OC)c1 | Non-Toxic

These molecules were tested on Malme-3M (assay: Cytotoxicity against human MALME-3M cells assessed as effect on cell growth at 10 uM incubated for 48 hrs by sulforhodamine B assay). Settings: not given.
Type: cell-based

Row | Structure (SMILES) | Activity
58 | COc1ccc(N2C(=O)[C@@H]3C/C(=C\N(C)C)C(=O)N3C2N(C)C)cc1 (stereo not given in full) | Non-Toxic
59 | COc1cc(CN/C=C2\C[C@@H](C(=O)NCc3ccc(Cl)cc3Cl)NC2=O)cc(OC)c1OC | Non-Toxic
60 | COc1ccc(CNC(=O)[C@@H]2CCC(=O)N2Cc2ccc(Cl)cc2Cl)c(OC)c1 | Non-Toxic
